Data taken from the supplement of paper PMC10307832.

Experiments:
Experiment in all cases: relative viability (nuclei count vs DMSO), 5 days (fraction); higher = more cells survive
[1] = compound: COc1nc(N)nc2c1ncn2[C@@H]1O[C@H](CO)[C@@H](O)[C@@H]1O [Nelarabine] + NC(=O)Nc1cc(-c2cccc(F)c2)sc1C(=O)N[C@H]1CCCNC1 [AZD7762] (partner 0.2 µM)
Summary of the method: (§1)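 A single step with final 0.05% Triton X-100, 1% formaldehyde and 1 ug/ml Hoechst fixed the cells and stained nuclei 5 days after treatment. Lung cancer cell lines in 1536-well plates had been treated by pin tool the day after seeding with one drug alone or a fixed anchor-drug dose plus five library-drug doses (not always all listed) in √10 steps, and nuclei were counted on 4× images. Relative viability is the ratio of nuclei in treated wells to nuclei in vehicle wells, taken as the median of duplicate plates.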

[2] = compound: C=CCn1c(=O)c2cnc(Nc3ccc(N4CCN(C)CC4)cc3)nc2n1-c1cccc(C(C)(C)O)n1 [Adavosertib] + CC(C)C[C@H](NC(=O)[C@H](Cc1ccccc1)NC(=O)c1cnccn1)B(O)O [Bortezomib] (partner 0.002 µM)
Summary of the method: as §1

[3] = compound: C=CCn1c(=O)c2cnc(Nc3ccc(N4CCN(C)CC4)cc3)nc2n1-c1cccc(C(C)(C)O)n1 [Adavosertib] + C[C@@H](Oc1cc(-c2cnn(C3CCNCC3)c2)cnc1N)c1c(Cl)ccc(F)c1Cl [Crizotinib] (partner 1 µM)
Summary of the method: as §1

[4] = compound: COc1nc(N)nc2c1ncn2[C@@H]1O[C@H](CO)[C@@H](O)[C@@H]1O [Nelarabine] + CC(C)C[C@H](NC(=O)[C@H](Cc1ccccc1)NC(=O)c1cnccn1)B(O)O [Bortezomib] (partner 0.002 µM)
Summary of the method: as §1

Cell Line	relative viability ([1]; first compound 0.01 µM)	relative viability ([1]; first compound 0.03162 µM)	relative viability ([1]; first compound 0.1 µM)	relative viability ([1]; first compound 0.3162 µM)	relative viability ([1]; first compound 1 µM)	relative viability ([2]; first compound 0.01 µM)	relative viability ([2]; first compound 0.03162 µM)	relative viability ([2]; first compound 0.1 µM)	relative viability ([2]; first compound 0.3162 µM)	relative viability ([3]; first compound 0.01 µM)	relative viability ([3]; first compound 0.03162 µM)	relative viability ([3]; first compound 0.1 µM)	relative viability ([3]; first compound 0.3162 µM)	relative viability ([4]; first compound 0.01 µM)	relative viability ([4]; first compound 0.03162 µM)	relative viability ([4]; first compound 0.1 µM)	relative viability ([4]; first compound 0.3162 µM)	relative viability ([4]; first compound 1 µM)
NCI-H727	0.497	0.525	0.463	0.543	0.463	0.867	0.869	0.877	0.945	0.804	0.994	0.737	0.871	1.09	0.768	0.869	0.95	0.795
NCI-H2085	1.11	1.04	0.996	1.12	0.987	1.04	1.05	1.05	1.11	0.748	0.866	0.946	0.85	1.07	0.976	1.02	1.05	0.889
A-427	0.781	0.62	0.599	0.62	0.572	0.906	1.04	0.964	0.861	0.972	0.931	1.02	0.962	1.01	0.846	1.01	0.895	0.961
LC-2-ad	1.01	0.96	0.859	0.908	0.856	1.11	1.08	1.09	1.16	0.499	0.442	0.547	0.528	1.08	1.03	0.972	1.26	1.07
LU99A	0.365	0.284	0.335	0.312	0.424	1.34	0.998	1.09	0.827	0.529	0.584	0.561	0.461	1.33	1.09	1.15	1.23	1.33
201T	0.774	0.547	0.609	0.653	0.612	1.06	1.06	1.16	1.14	1.05	0.992	1.08	1.07	1.11	1.02	1.12	1.15	1.08
NCI-H650	0.75	0.991	0.915	0.932	0.943	0.597	0.795	1.07	0.663	0.706	0.648	0.692	0.609	1.13	0.703	0.758	0.977	0.897
BEN	0.746	0.683	0.711	0.683	0.674	0.807	0.986	0.811	0.851	0.985	0.998	0.825	0.873	0.915	0.652	0.887	1.19	0.969
EPLC-272H	0.196	0.209	0.305	0.247	0.297	0.959	0.805	0.866	0.732	1.01	1.03	0.797	0.652	1.04	0.925	0.823	0.887	0.981
NCI-H1975	0.964	0.799	0.778	0.701	0.766	0.356	0.353	0.399	0.324	0.962	0.952	0.904	0.625	0.362	0.258	0.429	0.399	0.404
NCI-H1703	0.17	0.0897	0.132	0.131	0.104	0.461	0.366	0.464	0.18	0.853	0.712	0.978	0.103	0.364	0.162	0.405	0.303	0.448
HCC-827	0.203	0.208	0.158	0.175	0.163	1.02	1.04	1.06	1.06	0.895	0.943	1.03	0.929	1.09	0.956	1.02	0.914	0.783
LCLC-97TM1	0.273	–	0.351	0.281	0.215	0.284	0.635	0.577	0.233	–	0.501	0.357	0.147	1.05	–	0.716	0.634	0.205
NCI-H2126	1.02	1.07	1.05	1.04	0.997	1.12	1.17	1.11	1.15	1.05	1.01	1.08	1.07	1.18	1.14	1.11	1.12	1.01
PC-14	0.382	0.319	0.447	0.417	0.304	1.05	0.873	0.926	0.334	0.91	1.02	1.02	0.646	1.14	0.898	0.854	0.828	0.841
NCI-H1355	0.935	0.608	0.657	0.804	0.822	1.15	1.17	1.18	1.16	1.04	0.985	1.04	0.908	1.39	1.05	1.25	1.32	1.37

Cell Line	relative viability ([1]; first compound 0.01 µM)	relative viability ([1]; first compound 0.03162 µM)	relative viability ([1]; first compound 0.1 µM)	relative viability ([1]; first compound 0.3162 µM)	relative viability ([1]; first compound 1 µM)	relative viability ([2]; first compound 0.01 µM)	relative viability ([2]; first compound 0.03162 µM)	relative viability ([2]; first compound 0.1 µM)	relative viability ([2]; first compound 0.3162 µM)	relative viability ([3]; first compound 0.01 µM)	relative viability ([3]; first compound 0.03162 µM)	relative viability ([3]; first compound 0.1 µM)	relative viability ([3]; first compound 0.3162 µM)	relative viability ([4]; first compound 0.01 µM)	relative viability ([4]; first compound 0.03162 µM)	relative viability ([4]; first compound 0.1 µM)	relative viability ([4]; first compound 0.3162 µM)	relative viability ([4]; first compound 1 µM)
NCI-H460	0.79	0.626	0.616	0.558	0.323	1.14	0.966	1.22	0.966	0.929	0.822	1.11	0.627	–	1.34	1.69	1.37	1.1
NCI-H1651	0.495	0.53	0.452	0.518	0.422	0.902	0.963	1	0.935	0.836	0.882	0.897	0.899	1	0.873	1.02	0.977	0.817
NCI-H1734	0.699	0.5	0.484	0.603	0.531	1.01	1.01	1.02	0.696	0.817	0.772	0.82	0.695	1.1	0.961	0.949	0.9	0.955
H3255	0.835	0.933	0.938	0.854	0.95	0.539	0.885	0.699	0.845	0.87	1.04	1.04	0.936	1.06	0.868	0.897	0.722	0.696
NCI-H596	1.2	1.01	1.05	1.22	1.23	1.27	1.01	1	1.14	1.04	1.07	1.11	1.03	0.906	0.651	1.28	0.96	0.982
NCI-H1437	1.24	1.17	1.15	1.15	1.09	0.56	0.596	0.475	0.518	1	0.973	1.04	0.922	0.678	0.523	0.553	0.479	0.444
CAL-12T	0.721	0.642	0.685	0.58	0.561	–	0.817	0.946	0.68	0.935	0.592	0.776	0.509	1.11	0.973	1.31	0.958	0.959
LCLC-103H	0.829	0.75	0.71	0.855	0.838	1.03	1.1	1.05	1.08	1.07	0.99	1.06	1.07	1.36	1.05	1.01	1.13	1.1
NCI-H1792	0.854	0.69	1.1	0.68	0.6	0.974	0.918	0.972	0.968	0.978	0.881	1.05	1.05	1.28	–	1.05	1.17	0.85
NCI-H2347	0.915	0.658	0.718	0.506	0.769	0.763	0.911	0.875	0.763	0.72	0.778	0.772	0.699	1.27	–	0.862	0.985	1.3
NCI-H3122	1.24	0.769	–	0.998	0.969	1.12	0.992	1.11	1.09	0.287	0.241	0.294	0.271	1.03	0.872	–	1.03	1.02
HOP-62	0.684	0.396	0.602	0.798	0.48	0.941	1.08	1.03	1.03	0.986	0.905	1.04	0.955	1.46	0.392	1.11	1.18	1.02
NCI-H838	1.04	0.847	0.955	1	0.957	0.993	0.946	0.754	0.824	0.872	0.847	0.82	0.77	1.06	0.748	0.87	0.868	0.7
ABC-1	–	0.839	0.766	0.845	0.78	0.247	0.329	0.255	0.332	1.16	1.19	1.05	1.31	0.28	0.319	0.251	0.245	0.297
ChaGo-K-1	1	0.715	0.871	0.985	0.821	0.872	0.838	0.897	0.699	1.05	1.05	1.21	1.12	0.997	0.85	1.26	0.93	0.925
